Laboratory results reported in article PMC7501296, “Rapid and direct control of target protein levels with VHL-recruiting dTAG molecules” (Nature Communications, 2020).
Values joined by “and” are separate entries in the source; they are usually repeats but may differ in a detail not shown here. Equal entries are not always repeated.

Experiments:
[1] = system: EWS502 FKBP12^F36V-EWS/FLI; EWS/FLI^−/− cells; test: Relative growth of EWS502 FKBP12F36V-EWS/FLI; EWS/FLI-/- cells (CellTiter-Glo); format: cell-based; details: for Relative growth (luminescence values relative to day 0): EWS502 FKBP12F36V-EWS/FLI, EWS/FLI-/-; for Antiproliferation (relative growth): replicate values; for Antiproliferative effects upon EWS/FLI degradation: longer time-points
Procedure: (§1) Cell viability was assayed in 2D-adherent or ultra-low adherent 3D-spheroids using CellTiter-Glo (Promega)[6],[15]. Luminescence was measured on an Envision 2104 plate reader (PerkinElmer) and Fluostar Omega Reader (BMG Labtech) and data was analyzed using GraphPad PRISM v8. Synergy assessments were performed using CellTiter-Glo (Promega) with the following modifications to the protocol described in the ref. [34]. In brief, EWS502 cells were plated at 1000 cells per well in 50 µL of appropriate media in 384-well white culture plates (Corning) allowed to adhere overnight, and 100 nL of compounds were added using a Janus Workstation pin tool (PerkinElmer) for 72 h. Cell viability was measured by addition of 10 µL of CellTiter-glo (Promega), followed by incubation for 15 minutes at room temperature. Luminescence was measured on an Envision 2104 plate reader (PerkinElmer) and data was analyzed using GraphPad PRISM v8.

[2] = system: EWS502 FKBP12^F36V-EWS/FLI; EWS/FLI^−/− cells; test: Synergy assessment: antiproliferation of EWS502 FKBP12F36V-EWS/FLI; EWS/FLI-/- cells co-treated with dTAGV-1 and dBET6, 72 h; format: cell-based
Procedure: as §1

MED14 = system: MED14; set-up: method as in PMID 32483291; details: HCT116 cells; cited from earlier work

CCC(C(=O)N1CCCCC1C(=O)OC(CCc1ccc(OC)c(OC)c1)c1ccccc1OCC(=O)NCCCCCCC(=O)NC(C(=O)N1CC(O)CC1C(=O)NC(C)c1ccc(-c2scnc2C)cc1)C(C)(C)C)c1cc(OC)c(OC)c(OC)c1 (stereo not drawn) [dTAG^V-1-NEG]
Relative growth (luminescence values relative to day 0) ([1]; day 0, technical replicates): 0.9945 and 0.95 and 1.001 and 0.9766 and 1.051 and 1.053 and 1.003 and 0.9709
Relative growth (luminescence values relative to day 0) ([1]; day 3, technical replicates): 5.114 and 5.468 and 5.612 and 5.24 and 5.293 and 5.6444 and 5.751 and 5.436
Relative growth (luminescence values relative to day 0) ([1]; day 5, technical replicates): 9.983 and 9.4493 and 9.47 and 9.104 and 8.952 and 10.1487 and 8.526 and 9.042
Relative growth (luminescence values relative to day 0) ([1]; day 7, technical replicates): 11.0059 and 11.6763 and 12.0315 and 12.3084 and 11.8629 and 11.627 and 12.7076 and 12.9032
Antiproliferation (relative growth) ([1]; Time 0 days): 0.9369 and 1.039 and 1.049 and 1.03 and 0.9405 and 1.006 and 0.9678 and 1.0315
Antiproliferation (relative growth) ([1]; Time 3 days): 6.723 and 6.994 and 7.2 and 7.295 and 6.686 and 6.901 and 6.814 and 7.587
Antiproliferation (relative growth) ([1]; Time 5 days): 15.6789 and 14.8903 and 15.2182 and 14.1831 and 15.4702 and 12.9669 and 13.0283 and 13.2307
Antiproliferation (relative growth) ([1]; Time 7 days): 17.0897 and 17.8515 and 16.9942 and 16.7495 and 17.7706 and 16.0177 and 15.7257 and 18.5474
Antiproliferative effects upon EWS/FLI degradation [1]: absent

CC[C@H](C(=O)N1CCCC[C@H]1C(=O)O[C@H](CCc1ccc(OC)c(OC)c1)c1ccccc1OCC(=O)NCCCCCCC(=O)N[C@H](C(=O)N1C[C@H](O)C[C@H]1C(=O)N[C@@H](C)c1ccc(-c2scnc2C)cc1)C(C)(C)C)c1cc(OC)c(OC)c(OC)c1 [dTAG^V-1]
Relative growth (luminescence values relative to day 0) ([1]; day 0, technical replicates): 0.8696 and 1.038 (2×) and 1.097 and 0.9086 and 1.006 and 0.975 and 1.069
Relative growth (luminescence values relative to day 0) ([1]; day 3, technical replicates): 3.17 and 3.081 and 3.35 and 3.515 and 3.02 and 3.212 and 3.235 and 3.093
Relative growth (luminescence values relative to day 0) ([1]; day 5, technical replicates): 3.571 and 3.881 and 3.894 and 3.809 and 3.6579 and 3.634 and 3.713 and 3.678
Relative growth (luminescence values relative to day 0) ([1]; day 7, technical replicates): 4.1 and 3.846 and 4.015 and 4.459 and 4.182 and 3.984 and 3.963 and 4.228
Antiproliferation (relative growth) ([1]; Time 0 days): 1.031 and 1.006 and 0.9491 and 0.9896 and 1.023 and 0.9889 and 1.015 and 0.9988
Antiproliferation (relative growth) ([1]; Time 3 days): 3.562 and 3.604 and 3.659 and 3.498 and 3.439 and 4 and 3.9346 and 3.855
Antiproliferation (relative growth) ([1]; Time 5 days): 4.651 and 4.613 and 4.429 and 4.423 and 4.852 and 4.574 and 4.874 and 4.602
Antiproliferation (relative growth) ([1]; Time 7 days): 4.558 and 4.146 and 4.393 and 4.598 and 4.588 and 4.347 and 4.317 and 4.895
Antiproliferative effects upon EWS/FLI degradation [1]: Potent antiproliferative effects
Average DMSO-normalized ratio used for CI calculation ([2]; 19.5 nM dTAGV-1 alone): 0.9622
Average DMSO-normalized ratio used for CI calculation ([2]; 78 nM dTAGV-1 alone): 1.188
Average DMSO-normalized ratio used for CI calculation ([2]; 312.5 nM dTAGV-1 alone): 1.089
Average DMSO-normalized ratio used for CI calculation ([2]; 1250 nM dTAGV-1 alone): 1.112
Average DMSO-normalized ratio used for CI calculation ([2]; 5000 nM dTAGV-1 alone): 1.06
DMSO-normalized antiproliferation, Mean ([2]; co-treatment 19.5 nM dTAGV-1 (log10[M] -7.70927) + 1 nM dBET6 (log10[M] -9.0103)): 98.11
DMSO-normalized antiproliferation, Mean ([2]; co-treatment 19.5 nM dTAGV-1 (log10[M] -7.70927) + 4 nM dBET6 (log10[M] -8.40824)): 98.09
DMSO-normalized antiproliferation, Mean ([2]; co-treatment 19.5 nM dTAGV-1 (log10[M] -7.70927) + 15.6 nM dBET6 (log10[M] -7.80618)): 79.8
DMSO-normalized antiproliferation, Mean ([2]; co-treatment 19.5 nM dTAGV-1 (log10[M] -7.70927) + 62.5 nM dBET6 (log10[M] -7.20412)): 50.57
DMSO-normalized antiproliferation, Mean ([2]; co-treatment 19.5 nM dTAGV-1 (log10[M] -7.70927) + 250 nM dBET6 (log10[M] -6.60206)): 35.76
DMSO-normalized antiproliferation, Mean ([2]; co-treatment 78 nM dTAGV-1 (log10[M] -7.10721) + 1 nM dBET6 (log10[M] -9.0103)): 113.36
DMSO-normalized antiproliferation, Mean ([2]; co-treatment 78 nM dTAGV-1 (log10[M] -7.10721) + 4 nM dBET6 (log10[M] -8.40824)): 105.67
DMSO-normalized antiproliferation, Mean ([2]; co-treatment 78 nM dTAGV-1 (log10[M] -7.10721) + 15.6 nM dBET6 (log10[M] -7.80618)): 83.17
DMSO-normalized antiproliferation, Mean ([2]; co-treatment 78 nM dTAGV-1 (log10[M] -7.10721) + 62.5 nM dBET6 (log10[M] -7.20412)): 54.14
DMSO-normalized antiproliferation, Mean ([2]; co-treatment 78 nM dTAGV-1 (log10[M] -7.10721) + 250 nM dBET6 (log10[M] -6.60206)): 36.78
DMSO-normalized antiproliferation, Mean ([2]; co-treatment 312.5 nM dTAGV-1 (log10[M] -6.50515) + 1 nM dBET6 (log10[M] -9.0103)): 111.14
DMSO-normalized antiproliferation, Mean ([2]; co-treatment 312.5 nM dTAGV-1 (log10[M] -6.50515) + 4 nM dBET6 (log10[M] -8.40824)): 105.95
DMSO-normalized antiproliferation, Mean ([2]; co-treatment 312.5 nM dTAGV-1 (log10[M] -6.50515) + 15.6 nM dBET6 (log10[M] -7.80618)): 72.28
DMSO-normalized antiproliferation, Mean ([2]; co-treatment 312.5 nM dTAGV-1 (log10[M] -6.50515) + 62.5 nM dBET6 (log10[M] -7.20412)): 49.08
DMSO-normalized antiproliferation, Mean ([2]; co-treatment 312.5 nM dTAGV-1 (log10[M] -6.50515) + 250 nM dBET6 (log10[M] -6.60206)): 33.26
DMSO-normalized antiproliferation, Mean ([2]; co-treatment 1250 nM dTAGV-1 (log10[M] -5.90309) + 1 nM dBET6 (log10[M] -9.0103)): 89.48
DMSO-normalized antiproliferation, Mean ([2]; co-treatment 1250 nM dTAGV-1 (log10[M] -5.90309) + 4 nM dBET6 (log10[M] -8.40824)): 74.91
DMSO-normalized antiproliferation, Mean ([2]; co-treatment 1250 nM dTAGV-1 (log10[M] -5.90309) + 15.6 nM dBET6 (log10[M] -7.80618)): 44.25
DMSO-normalized antiproliferation, Mean ([2]; co-treatment 1250 nM dTAGV-1 (log10[M] -5.90309) + 62.5 nM dBET6 (log10[M] -7.20412)): 31.06
DMSO-normalized antiproliferation, Mean ([2]; co-treatment 1250 nM dTAGV-1 (log10[M] -5.90309) + 250 nM dBET6 (log10[M] -6.60206)): 29.68
DMSO-normalized antiproliferation, Mean ([2]; co-treatment 5000 nM dTAGV-1 (log10[M] -5.30103) + 1 nM dBET6 (log10[M] -9.0103)): 80.15
DMSO-normalized antiproliferation, Mean ([2]; co-treatment 5000 nM dTAGV-1 (log10[M] -5.30103) + 4 nM dBET6 (log10[M] -8.40824)): 47.93
DMSO-normalized antiproliferation, Mean ([2]; co-treatment 5000 nM dTAGV-1 (log10[M] -5.30103) + 15.6 nM dBET6 (log10[M] -7.80618)): 27.9
DMSO-normalized antiproliferation, Mean ([2]; co-treatment 5000 nM dTAGV-1 (log10[M] -5.30103) + 62.5 nM dBET6 (log10[M] -7.20412)): 26.15
DMSO-normalized antiproliferation, Mean ([2]; co-treatment 5000 nM dTAGV-1 (log10[M] -5.30103) + 250 nM dBET6 (log10[M] -6.60206)): 25.03
DMSO-normalized antiproliferation, Mean ([2]; dTAGV-1 log10[M] -5.30103, with DMSO (no dBET6)): 106.03
DMSO-normalized antiproliferation, Mean ([2]; dTAGV-1 log10[M] -5.90309, with DMSO (no dBET6)): 111.22
DMSO-normalized antiproliferation, Mean ([2]; dTAGV-1 log10[M] -6.50515, with DMSO (no dBET6)): 108.9
DMSO-normalized antiproliferation, Mean ([2]; dTAGV-1 log10[M] -7.10721, with DMSO (no dBET6)): 118.75
DMSO-normalized antiproliferation, Mean ([2]; dTAGV-1 log10[M] -7.70927, with DMSO (no dBET6)): 96.22
Degradation of MED14 (MED14): effective degradation
